Experimental data: patent US4281009A, “Hydantoin derivatives” (Nippon Zoki Pharmaceutical Co., Ltd., priority 1978, dated 1981)

Key:
Wistar-strain male rats = test: Antiulcerogenic effect on Shay's ulcer (operative ulcer); type: in vivo; conditions: 150 mg/kg intraperitoneal, 10 times
Method: 6.2. Antiulcerogenic effect on Shay's ulcer (operative ulcer):
Tests were carried out by using groups of rats each comprising 5-10 Wistar-strain male rats according to Shay method [Shay Harry; Gastroenterology,; 5, 43 (1945)]. Ulcers in the anterior stomach were classified on the following basis:
2. 1-5 small ulcers (diameter of less than 3 mm)
3. 6 or more small ulcers or one big ulcer (diameter of more than 3 mm)
4. two or more big ulcers

[1] = tested on: normal mice and SART stress mice; test: Analgesic effect, tail pressure method (Randall-Selitto's device); type: in vivo, mice (ddY-strain male); conditions: 60 minutes; for change in vivo at 100 mg/kg: Mus musculus, ip, 1 h, intraperitoneal 100 mg/kg; for Analgesic effect: intraperitoneal 50 mg/kg
Method: 5.1 Tail pressure method:
Randall-Selitto's device for determining analgesic effect by pressure stimulation was used. […]. The compounds of the present invention or other comparative drugs were given thereto and analgesic effect was determined. The effect was judged by measuring pressure applied 60 minutes after the intraperitoneal administration of the compounds of the present invention. The pressure thus measured was divided by a pressure before the administration. The value thus obtained was compared with that of a control group (to which 10 ml./Kg of 0.5% sodium salt of carboxymethylcellulose or 0.5% Tween 80 was given). When the compounds of the present invention were given perorally and other comparative drugs were given, an average of the pressure at 30, 60, 90 and 120 minutes after the administration was employed for evaluating the effect.

dd-strain male mice [2] = test: Antiulcerogenic effect on Takagi's restraint-plus-water-immersing ulcer; type: in vivo; conditions: Mus musculus, ip; 150 mg/kg intraperitoneal
Method: 6.1 Antiulcerogenic effect on Takagi's restraint-plus-water-immersing ulcer: Groups each comprising 8-26 dd-strain male mice were used. The tests were carried out according to a method of Takagi, et al. [Chem. Pharm. Bull.; 12, 465 (1964)]. Sum of length of diseased parts in the glandular stomach was measured and it was compared with that of control group. The compounds of the present invention or DPH was given intraperitoneally immediately before the restraint and immersion in water.

[3] = tested on: normal mice and SART stress mice; test: Analgesic effect, D'Amour-Smith method; type: in vivo, mice (ddY-strain male); conditions: Mus musculus, ip, intraperitoneal 100 mg/kg
Method: 5.3. D'Amour-Smith method:
Groups each comprising 10 ddY-strain male normal mice and SART stress mice to which SART stress had been applied for 4 days were used. The root of the tail of the mouse to which black ink was applied was irradiated with infrared rays for up to 15 seconds. Time required till escape response was observed was measured. The effect was shown by the ratio of the mice in which an average value of the response time at 30, 60, 90 and 120 minutes after the administration of the compounds of the present invention or other comparative drugs was prolonged to at least 2 times as long as the time before the administration.

[4] = Acute toxicity test (LD50, Litchfield-Wilcoxon), mice; conditions: mouse, in vivo, ip, intraperitoneal
Method: (§1) Toxicity tests were carried out by intraperitoneal administration of the compound of the present invention to groups each comprising 10 ICR-strain mice and SD-strain rats. LD50 was calculated by the Litchfield-Wilcoxon method based on the number of death 72 hours after the administration.

[5] = Acute toxicity test (LD50, Litchfield-Wilcoxon), rats; conditions: rat, in vivo, ip, intraperitoneal
Method: as §1

ddY-strain male mice = test: Effect of prolongation of sleeping time (hexobarbital); type: in vivo; conditions: for change in vivo at 100 mg/kg / change in vivo at 300 mg/kg: Mus musculus, ip; for change in vivo at 100 mg/kg: 100 mg/kg intraperitoneal; for change in vivo at 300 mg/kg: 300 mg/kg intraperitoneal
Method: 7. Effect of prolongation of sleeping time:
Groups of mice each comprising 10 ddY-strain male mice were used. Sodium salt of hexobarbital was given intraperitoneally. Thereafter, the period of time in which righting reflex disappeared was measured. The effect was evaluated on the basis of prolongation of time of disappearance of righting reflex by the intraperitoneal administration of the compounds of the present invention as compared with control mice.

isolated duodenum = test: Recovery of acetylcholine sensitivity of isolated duodenum of SART stress mice (Magnus method); type: in vivo, mice (dd-strain male); conditions: 6th day, Ach 10^-7 g/ml, Average ± S.E.
Text: (§2) SART stress animals used in the tests described below were raised according to a method of Kita, et al. [Folia Pharmacol. Japan.: 71, 195-210 (1975)].
3. Effect of recovering acetylcholine (Ach) sensitivity of isolated intestinal tract:
Groups each comprising at least 10 dd-strain male mice were used. The compounds of the present invention or other comparative drugs were given intraperitoneally once a day during the stress-causing operation. On the 6th day, Ach (10^-7 g/ml.) sensitivity of isolated duodenum was examined using the Magnus method.

SART stress mice = test: Inhibitory effects on increase of heart rate and elongation of QRS-time in SART stress mice; type: in vivo, mice (dd-strain male); conditions: 9th day, Average ± S.D.
Method: as §2
2. Inhibitory effects on increase of heart rate and elongation of QRS-time in stress animals:
Groups of mice each comprising 11 or 12 dd-strain male mice were divided into three groups in the same manner as above and heart rate and QRS-time were determined on the 9th day after initiation of the tests.

[6] = tested on: normal mice and SART stress mice; test: Analgesic effect, acetic acid writhing method; type: in vivo; conditions: Mus musculus, sc, 100 mg/Kg subcutaneously
Method: 5.2. Acetic acid writhing method: 0.1 ml./10 g of isotonic sodium chloride solution containing 0.7% acetic acid was given intraperitoneally to groups of mice each comprising 5 normal mice and 5 SART stress mice to which SART stress had been applied for 8 days. Writhing syndromes number appeared for 15 minutes after the administration was measured. The effect was evaluated by giving 100 mg/Kg of the compounds of the present invention or DPH subcutaneously and comparing the writhing syndromes number of the mice with that of control mice.

[7] = tested on: spontaneously hypertensive rats (SHR); test: Antihypertensive effect in spontaneously hypertensive rats; type: in vivo; conditions: 60 minutes
Method: 8. Antihypertensive effect: Groups of rats each comprising 6-9 spontaneously hypertensive rats (SHR) were used. The compounds of the present invention or DPH was given intraperitoneally. The rate of antihypertension 60 minutes after the administration was determined.

dd-strain male mice [8] = test: Inhibitory effect on Tremorine-induced tremor; type: in vivo; conditions: 100 mg/kg intraperitoneal; tremorine 10 mg/Kg
Method: 9. Inhibitory effect on Tremorine-induced tremor:
Groups of mice each comprising 10-40 dd-strain male mice were used. Effect of the compounds of the present invention on tremor caused by tremorine was examined. The compounds of the present invention or DPH was given intraperitoneally. 45 minutes thereafter, 10 mg/Kg of tremorine was given intraperitoneally for inducing the tremor.

[9] = tested on: normal rats and SART stress rats; test: Analgesic effect, pain induced by Bradykinin; type: in vivo, rats (SD-strain male); conditions: intraperitoneal 100 mg/kg
Method: 5.4 Method of measuring a pain induced by Bradykinin:
Groups each comprising 4-8 SD-strain male normal rats and SART stress rats to which SART stress had been applied for 4 days were used. The tests were carried out according to the method of Deffenu et al. [Deffenu, G., Pegrassi, L., & Fumachi. B.; J. Pharm. Pharmacol.; 18, 135 (1966)] and Blane method [Blane, G. F.; J. Pharm. Pharmacol.; 19, 367 (1967)]. The effect judged was shown by ratio of the rats in which the effect was recognized according to the method of Abe, et al. [Abe, Kaneko & Takagi; Folia Pharmacol. Japon.; 67, 9-14 (1971)].

Structure (SMILES) | change in vivo at 100 mg/kg ([1]; SART stress mice) [%] | change in vivo at 100 mg/kg ([1]; normal mice) [%] | responders at 100 mg/kg ([3]; SART stress mice) [%] | responders at 100 mg/kg ([3]; normal mice) [%] | LD50 at 72 h ([4]; female) [mg/kg] | LD50 at 72 h ([4]; male) [mg/kg] | LD50 at 72 h ([5]; female) [mg/kg] | LD50 at 72 h ([5]; male) [mg/kg] | change in vivo at 100 mg/kg (ddY-strain male mice) [%] | change in vivo at 300 mg/kg (ddY-strain male mice) [%] | Ach-induced contraction of the isolated deodedum (isolated duodenum; 5 mg/kg/day intraperitoneal) [%] | also measured
O=C1NC(=O)C(c2ccccc2)(c2ccc(F)cc2)N1 (stereo not drawn) [Compound 5, 5-(4-Fluorophenyl)-5-phenylhydantoin] | 95 | 19.8 | 40 | 10 | 810 | 840 | 1100 | 1180 | 31 | 38.1 | – | Antiulcerogenic effect on Shay's ulcer (operative ulcer) (Wistar-strain male rats): 20.7%; inhibition in vivo at 150 mg/kg (dd-strain male mice [2]): 22.8%
CN(C)CCCN1c2ccccc2Sc2ccc(Cl)cc21 [Chlorpromazine] | – | – | – | – | – | – | – | – | – | – | – | Ach-induced contraction of the isolated deodedum (isolated duodenum; 0.1 mg/kg/day intraperitoneal): 45 ± 12%; Ach-induced contraction of the isolated deodedum (isolated duodenum; 0.5 mg/kg/day intraperitoneal): 81 ± 17%
CN(C)CCCN1c2ccccc2CCc2ccccc21 [Imipramine] | – | – | – | – | – | – | – | – | – | – | 44 ± 15 | Ach-induced contraction of the isolated deodedum (isolated duodenum; 10 mg/kg/day intraperitoneal): 100 ± 4%
COc1ccc(C2(c3ccc(OC)c(C)c3)NC(=O)NC2=O)cc1 (stereo not drawn) [Compound 3, 5-(4-methoxy-3-methylphenyl)-5-(4-methoxyphenyl)hydantoin] | 91 | 47.4 | 40 | 30 | > 5000 | > 5000 | > 5000 | > 5000 | 76.6 | 93.9 | – | Heart rate (SART stress mice; 100 mg/kg/day): 710 ± 83 min⁻¹; QRS-time (SART stress mice; 100 mg/kg/day): 13.1 ± 1.7 1/1000 sec; inhibition in vivo at 100 mg/kg ([6]; SART stress mice): 22%; inhibition in vivo at 100 mg/kg ([6]; normal mice): 2%; Analgesic effect ([1]; SART stress mice): 60.3%; Analgesic effect ([1]; normal mice): 44.3%
Cc1cc(C2(c3ccc(O)cc3)NC(=O)NC2=O)ccc1O (stereo not drawn) [Compound 30, 5-(4-Hydroxy-3-methylphenyl)-5-(4-hydroxyphenyl)hydantoin] | 97.5 | 59.8 | 30 | 20 | > 5000 | > 5000 | > 5000 | > 5000 | 26.6 | 97.4 | – | Heart rate (SART stress mice; 100 mg/kg/day): 731 ± 71 min⁻¹; QRS-time (SART stress mice; 100 mg/kg/day): 13.4 ± 1.1 1/1000 sec; Rate of antihypertension ([7]; 150 mg/Kg intraperitoneal): 10.9%; Rate of antihypertension ([7]; 300 mg/Kg intraperitoneal): 28.6%; inhibition in vivo at 100 mg/kg ([6]; SART stress mice): 25.2%; inhibition in vivo at 100 mg/kg ([6]; normal mice): 3.9%; Analgesic effect ([1]; SART stress mice): 43.6%; Analgesic effect ([1]; normal mice): 12.4%
NC(=O)C1(N2CCCCC2)CCN(CCCN2c3ccccc3CCc3ccccc32)CC1 [Carpipramine] | – | – | – | – | – | – | – | – | – | – | 52 ± 6 | Ach-induced contraction of the isolated deodedum (isolated duodenum; 10 mg/kg/day intraperitoneal): 110 ± 26%
O=C1NC(=O)C(c2ccccc2)(c2ccc(O)cc2)N1 (stereo not drawn) [Compound 7, 5-(4-Hydroxyphenyl)-5-phenylhydantoin] | 106 | 38.1 | 50 | 40 | > 5000 | > 5000 | > 5000 | > 5000 | 112 | – | – | Inhibitory effect on Tremorine-induced tremor (dd-strain male mice [8]): 35%; Heart rate (SART stress mice; 50 mg/kg/day): 690 ± 56 min⁻¹; QRS-time (SART stress mice; 50 mg/kg/day): 12.6 ± 1.5 1/1000 sec; inhibition in vivo at 100 mg/kg ([6]; SART stress mice): 31.3%; inhibition in vivo at 100 mg/kg ([6]; normal mice): 3.8%; Analgesic effect ([1]; SART stress mice): 76.5%; Analgesic effect ([1]; normal mice): 31.5%; Analgesic effect ([9]; SART stress rats): 66.7%; Analgesic effect ([9]; normal rats): 50%; Effect of prolongation of sleeping time (ddY-strain male mice; 20 mg/kg intraperitoneal): 48.0%; Effect of prolongation of sleeping time (ddY-strain male mice; 50 mg/kg intraperitoneal): 101.7%
CN(C)CCOC(c1ccccc1)c1ccccc1 [Diphenhydramine] | – | – | – | – | – | – | – | – | – | – | – | Ach-induced contraction of the isolated deodedum (isolated duodenum; 10 mg/kg/day intraperitoneal): 25 ± 5%
O=C1NC(=O)C(c2ccc(O)cc2)(c2ccc(O)c(Cl)c2)N1 (stereo not drawn) [Compound 33, 5-(3-Chloro-4-hydroxyphenyl)-5-(4-hydroxyphenyl)hydantoin] | 69.8 | 29.5 | 30 | 20 | > 5000 | > 5000 | > 5000 | > 5000 | 24.2 | 32.9 | – | Antiulcerogenic effect on Shay's ulcer (operative ulcer) (Wistar-strain male rats): 54.2%; Inhibitory effect on Tremorine-induced tremor (dd-strain male mice [8]): 29%; inhibition in vivo at 150 mg/kg (dd-strain male mice [2]): 29.8%
CCCC(C)(COC(N)=O)COC(N)=O [Meprobamate] | – | – | – | – | – | – | – | – | – | – | 31 ± 2 | –
COC(=O)[C@H]1[C@H]2C[C@@H]3c4[nH]c5cc(OC)ccc5c4CCN3C[C@H]2C[C@@H](OC(=O)c2cc(OC)c(OC)c(OC)c2)[C@@H]1OC [Reserpine] | – | – | – | – | – | – | – | – | – | – | – | Ach-induced contraction of the isolated deodedum (isolated duodenum; 0.1 mg/kg/day intraperitoneal): 75 ± 10%; Ach-induced contraction of the isolated deodedum (isolated duodenum; 0.5 mg/kg/day intraperitoneal): 104 ± 15%
CN1C(=O)CN=C(c2ccccc2)c2cc(Cl)ccc21 [Diazepam] | – | – | – | – | – | – | – | – | – | – | 25 ± 6 | –
